In patent publication US20130116209A1, “METHOD FOR SELECTION OF CHEMOTHERAPEUTIC AGENTS FOR ADENOCARCINOMA CANCER” (VENTANA MEDICAL SYSTEMS, INC., priority 2011, published 2013):

Assays:
[1] = system: pancreatic adenocarcinoma; assay: Retrospective RTOG 9704 study: tumor hENT1 expression (IHC, SP120 antibody) versus overall survival after adjuvant gemcitabine or 5FU; type: in vivo, human; details: for OS of Low hENT1 subgroup compared to High hENT1 subgroup / OS across High, Mid and No hENT1 subgroups: Method Six; for OS across High, Mid and No hENT1 subgroups: three subgroups (FIG. 2 score sheet), FIGS. 33-34
Experimental: The RTOG 9704 study and its results are further described in Regine, W. F. et al. (2008) JAMA 299(9):1019-1026; Regine, W. F. et al. (2011) Ann. Surg. Oncol. 18:1319-1326.
Formalin-fixed, paraffin-embedded (FFPE) specimens have been retrieved from tissue repositories. The specimens were obtained from patients prior to adjuvant therapy. Tissue was processed into tissue microarrays (TMA) at the RTOG Biospecimen Resource center and IHC staining was performed in a central laboratory (Ventana Medical Systems). Stained slides were interpreted by pathologists blind to study outcomes.
Samples have been centralized within the RTOG Biospecimen Resource facility. Tissue micro arrays (TMA) were also constructed in the RTOG Biospecimen Resource facility. Three cores from each tumor specimen were arrayed on three separate TMAs. A total of 220 cases were arrayed on the TMAs.
Slides from TMAs were prepared and forwarded to the core pathology laboratory (Ventana Medical Systems), and stained by SP120 rabbit monoclonal antibody for detection of hENT1 protein according to established methods. The following parameters were recorded for each specimen based on scoring by a pathologist blinded to the patient's clinical characteristics and outcome: • Intensity of staining (e.g. 0=no stain, 1+=weakly positive, 2+=moderately positive, 3+=strongly positive) • Percentage of tumor cells with staining at each intensity level (% of tumor tissue specifically excluding non-malignant cells/regions) • Pattern of staining (segmented or diffuse) • Cellular compartment (membrane or cytoplasm).

pancreatic cancer = details: Stage III/IV disease, gemcitabine monotherapy, unresectable pancreatic cancer; cited from earlier work
[2] = FIG. 3 algorithm (50% of tumor with membrane staining at 10×), FIGS. 4-5
[3] = FIG. 6 algorithm (PP at 2×, 4×, 10× and negative tumor <=50%), FIGS. 7-8

O=c1[nH]cc(F)c(=O)[nH]1 [5FU, 5-Fluorouracil]
median OS as hENT1 expression increases from No to Low to High ([1]; Method Five (percent negative staining), FIG. 18): do not demonstrate an improvement in OS | median OS as hENT1 expression increases from Negative to Weak to Moderate to Strong ([1]; Method Four (staining intensity), FIG. 30): do not demonstrate an improvement in OS | median OS as hENT1 expression (H-score subgroup) increases ([1]; Method One (H-score), FIG. 22): do not demonstrate an improvement in OS | OS of Low hENT1 subgroup compared to High hENT1 subgroup [1, 2]: do not demonstrate improvement in OS | OS of Low hENT1 subgroup compared to High hENT1 subgroup [1, 3]: do not demonstrate improvement in OS | OS across High, Mid and No hENT1 subgroups [1]: do not demonstrate improvement in OS | median OS as hENT1 expression increases from Negative to Segmental to Diffuse ([1]; Method Three (staining pattern), FIG. 26): do not demonstrate an improvement in OS

Nc1ccn([C@@H]2O[C@H](CO)[C@@H](O)C2(F)F)c(=O)n1 [gemcitabine]
OS of No hENT1 subgroup compared to Low and High hENT1 subgroups ([1]; Method Five, FIG. 19): shorter OS | OS of combined Low and High hENT1 subgroup compared to No hENT1 subgroup ([1]; Method Five, FIG. 20): longer OS | OS of negative hENT1 subgroup compared to Weak, Moderate or Strong subgroups ([1]; Method Four, FIG. 31): shorter OS | OS of H-score<=20 subgroup compared to H-score 20-80 and >=80 subgroups ([1]; Method One, FIG. 23): shorter OS | OS of H-score>=50 patients compared to H-score <50 patients ([1]; Method One, FIG. 24): longer OS | OS of Low hENT1 subgroup compared to High hENT1 subgroup [1, 2]: shorter OS | OS of Low hENT1 subgroup compared to High hENT1 subgroup [1, 3]: shorter OS | OS across High, Mid and No hENT1 subgroups [1]: No hENT1 expression exhibited the shortest OS followed by the Mid hENT1 subgroup and the High hENT1 subgroup had the longest OS | OS of negative hENT1 subgroup compared to Segmental or Diffuse subgroups ([1]; Method Three, FIG. 27): shorter OS | OS of patients with detectable hENT1 (S or D) compared to no hENT1 expression ([1]; Method Three, FIG. 28): longer OS | OS of subgroup N, 20× or 40× compared to subgroup PP at 2×, 4× or 10× ([1]; Method Two (magnification), FIGS. 15-16): shorter OS | median OS (pancreatic cancer): 5-7 months
